Data from patent publication US20130252944A1, “NOVEL FUSED PYRAZOLE DERIVATIVES AND THEIR USE AS ALLOSTERIC MODULATORS OF METABOTROPIC GLUTAMATE RECEPTORS” (priority 2010, published 2013).

Target: T1, recombinant human mGluR4a receptors (Homo sapiens, UniProt Q14833)
T1 construct: expressed in transfected cells
Test: Fluorescent cell based Ca2+ mobilization assay (FLIPR) on HEK-293 cells expressing human mGluR4
Conditions: positive allosteric modulation in presence of EC25 glutamate; HEK-293 hmGluR4; mean of at least three independent experiments in duplicate; read-out: Ca^2+ Flux (mean EC50)
Description: mGluR4 Assay on HEK-Expressing Human mGluR4
The compounds of the present invention are positive allosteric modulators of mGluR4 receptor. Their activity was examined on recombinant human mGluR4a receptors by detecting changes in intracellular Ca^2+concentration, using the fluorescent Ca^2+-sensitive dye Fluo4-(AM) and a Fluorometric Imaging Plate Reader (FLIPR, Molecular Devices, Sunnyvale, Calif.).
The cDNA encoding the human metabotropic glutamate receptor (hmGluR4), (accession number NM_000841.1, NCBI Nucleotide database browser), was subcloned into an expression vector containing also the hygromycin resistance gene. In parallel, the cDNA encoding a G protein allowing redirection of the activation signal to intracellular calcium flux was subcloned into a different expression vector containing also the puromycin resistance gene. Transfection of both these vectors into HEK293 cells with PolyFect reagent (Qiagen) according to supplier's protocol, and hygromycin and puromycin treatment allowed selection of antibiotic resistant cells which had integrated stably one or more copies of the plasmids. Positive cellular clones expressing hmGluR4 were identified in a functional assay measuring changes in calcium fluxes in response to glutamate or selective known mGluR4 orthosteric agonists and antagonists.
HEK-293 cells expressing hmGluR4 were maintained in media containing DMEM, dialyzed Fetal Calf Serum (10%), Glutamax™ (2 mM), Penicillin (100 units/mL), Streptomycin (100 μg/mL), Geneticin (100 μg/mL) and Hygromycin-B (40 μg/mL) and puromycin (1 μg/mL) at 37° C./5% CO2.
Human mGluR4 HEK-293 cells were plated out 24 hours prior to FLIPR^384 assay in black-walled, clear-bottomed, poly-L-ornithine-coated 384-well plates at a density of 25,000 cells/well in a glutamine/glutamate free DMEM medium containing foetal bovine serum (10%), penicillin (100 units/mL) and streptomycin (100 μg/mL) at 37° C./5% CO2.
On the day of the assay, the medium was aspirated and the cells were loaded with a 3 μM solution of Fluo4-AM (LuBioScience, Lucerne, Switzerland) in 0.03% pluronic acid. After 1 hour at 37° C./5% CO2, the non incorporated dye was removed by washing cell plate with the assay buffer and the cells were left in the dark at room temperature for […] before testing. All assays were performed in a pH=7.4 buffered-solution containing 20 mM HEPES, 143 mM NaCl, 6 mM KCl, 1 mM MgSO4, 1 mM CaCl2, 0.125 mM sulfapyrazone and 0.1% glucose.
After 10 s of basal fluorescence recording, various concentrations of the compounds of the invention were added to the cells. Changes in fluorescence levels were first monitored for 180 s in order to detect any agonist activity of the compounds. Then the cells were stimulated by an EC25 glutamate concentration for an additional 110 s in order to measure enhancing activities of the compounds of the invention. EC25 glutamate concentration is the concentration giving 25% of the maximal glutamate response.
The concentration-response curves of representative compounds of the present invention were generated using the Prism GraphPad software (Graph Pad Inc, San Diego, USA). The curves were fitted to a four-parameter logistic equation:
(Y=Bottom+(Top−Bottom)/(1+10̂((LogEC50−X)*Hill Slope)
allowing the determination of EC50 values.
The Table 3 below represents the mean EC50 obtained from at least three independent experiments of selected molecules performed in duplicate.

T1 sequence (Q14833 33-912): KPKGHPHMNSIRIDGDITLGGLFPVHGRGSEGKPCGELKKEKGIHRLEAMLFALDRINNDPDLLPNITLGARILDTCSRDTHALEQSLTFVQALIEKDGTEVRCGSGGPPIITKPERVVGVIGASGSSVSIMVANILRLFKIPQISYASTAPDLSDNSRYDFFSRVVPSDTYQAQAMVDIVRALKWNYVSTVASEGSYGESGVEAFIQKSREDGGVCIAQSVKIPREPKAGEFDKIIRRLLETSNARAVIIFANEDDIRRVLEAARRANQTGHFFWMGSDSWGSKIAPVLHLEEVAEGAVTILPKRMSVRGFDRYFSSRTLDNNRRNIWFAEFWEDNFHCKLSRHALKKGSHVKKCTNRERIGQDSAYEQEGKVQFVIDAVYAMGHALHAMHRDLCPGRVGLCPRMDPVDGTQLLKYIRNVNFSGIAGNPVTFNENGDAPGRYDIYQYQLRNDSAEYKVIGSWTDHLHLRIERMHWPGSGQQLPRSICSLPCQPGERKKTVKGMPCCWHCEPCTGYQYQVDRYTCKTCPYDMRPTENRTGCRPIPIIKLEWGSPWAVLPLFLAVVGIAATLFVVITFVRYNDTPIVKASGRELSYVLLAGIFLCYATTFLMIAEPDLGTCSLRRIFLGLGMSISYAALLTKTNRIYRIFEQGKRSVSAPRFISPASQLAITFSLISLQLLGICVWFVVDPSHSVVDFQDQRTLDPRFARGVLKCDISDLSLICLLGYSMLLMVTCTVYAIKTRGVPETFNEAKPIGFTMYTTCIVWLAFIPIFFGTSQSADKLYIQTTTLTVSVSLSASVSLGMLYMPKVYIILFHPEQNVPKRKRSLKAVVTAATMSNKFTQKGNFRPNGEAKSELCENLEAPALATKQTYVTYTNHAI

EC50 [nM]	Structure (SMILES)
< 100	CCC1OCc2sc(Nc3ncc(F)cn3)nc2-c2c[nH]nc21 (centres unmarked) [Compound 1-19, (6-Ethyl-6,8-dihydro-4H-5-oxa-3-thia-1,7,8-triaza-cyclopenta[e]azulen-2-yl)-(5-fluoro-pyrimidin-2-yl)-amine]
100 to 1000	Cc1ccnc(Nc2nc3c(s2)CC(C)(C)C(F)(F)c2[nH]ncc2-3)n1 [Compound 1-9, (6,6-Difluoro-5,5-dimethyl-4,5,6,7-tetrahydro-3-thia-1,7,8-triaza-cyclopenta[e]azulen-2-yl)-(4-methyl-pyrimidin-2-yl)-amine]
